Data reported in ChEMBL document CHEMBL5465560, “Selectivity Literature for EUbOPEN Chemogenomic Library” (2024).

How the values were obtained:
Misshapen-like kinase 1 = Misshapen-like kinase 1 (Homo sapiens, UniProt Q8N4C8); assay: Selectivity interaction (KinomeScan (DiscoverX)) EUB0000666a MINK1; details: at 10 µM
[1] = biological target: T1, Rhodopsin kinase GRK7 (Homo sapiens) (UniProt Q8WTQ7); assay: Selectivity interaction (KinomeScan (DiscoverX)) EUB0001079a GRK7; details: at 1 µM
T1 sequence (whole entry): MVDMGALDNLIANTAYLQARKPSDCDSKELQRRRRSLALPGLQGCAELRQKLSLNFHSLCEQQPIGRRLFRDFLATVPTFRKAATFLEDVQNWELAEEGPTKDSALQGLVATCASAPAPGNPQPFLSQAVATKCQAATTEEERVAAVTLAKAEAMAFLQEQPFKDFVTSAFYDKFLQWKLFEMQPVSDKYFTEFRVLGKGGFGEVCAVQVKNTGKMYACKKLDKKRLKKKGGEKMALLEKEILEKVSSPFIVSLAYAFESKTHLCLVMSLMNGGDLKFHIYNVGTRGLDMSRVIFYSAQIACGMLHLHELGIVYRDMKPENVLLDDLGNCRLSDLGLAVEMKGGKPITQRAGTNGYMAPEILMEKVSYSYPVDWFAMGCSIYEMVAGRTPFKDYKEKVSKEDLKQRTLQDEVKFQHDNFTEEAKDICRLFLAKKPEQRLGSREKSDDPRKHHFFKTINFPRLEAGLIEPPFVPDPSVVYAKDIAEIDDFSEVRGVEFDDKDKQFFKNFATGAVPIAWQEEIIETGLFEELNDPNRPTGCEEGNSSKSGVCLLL

[2] = biological target: Mitogen-activated protein kinase kinase kinase 11 (Homo sapiens) (UniProt Q16584); assay: Selectivity interaction (Kinase panel (Invitrogen)) EUB0000639a MAP3K11; details: at 200 nM
[3] = biological target: T2, Muscle, skeletal receptor tyrosine-protein kinase (Homo sapiens) (UniProt O15146); assay: Selectivity interaction (KinomeScan (DiscoverX)) EUB0000045b MUSK
T2 sequence (whole entry): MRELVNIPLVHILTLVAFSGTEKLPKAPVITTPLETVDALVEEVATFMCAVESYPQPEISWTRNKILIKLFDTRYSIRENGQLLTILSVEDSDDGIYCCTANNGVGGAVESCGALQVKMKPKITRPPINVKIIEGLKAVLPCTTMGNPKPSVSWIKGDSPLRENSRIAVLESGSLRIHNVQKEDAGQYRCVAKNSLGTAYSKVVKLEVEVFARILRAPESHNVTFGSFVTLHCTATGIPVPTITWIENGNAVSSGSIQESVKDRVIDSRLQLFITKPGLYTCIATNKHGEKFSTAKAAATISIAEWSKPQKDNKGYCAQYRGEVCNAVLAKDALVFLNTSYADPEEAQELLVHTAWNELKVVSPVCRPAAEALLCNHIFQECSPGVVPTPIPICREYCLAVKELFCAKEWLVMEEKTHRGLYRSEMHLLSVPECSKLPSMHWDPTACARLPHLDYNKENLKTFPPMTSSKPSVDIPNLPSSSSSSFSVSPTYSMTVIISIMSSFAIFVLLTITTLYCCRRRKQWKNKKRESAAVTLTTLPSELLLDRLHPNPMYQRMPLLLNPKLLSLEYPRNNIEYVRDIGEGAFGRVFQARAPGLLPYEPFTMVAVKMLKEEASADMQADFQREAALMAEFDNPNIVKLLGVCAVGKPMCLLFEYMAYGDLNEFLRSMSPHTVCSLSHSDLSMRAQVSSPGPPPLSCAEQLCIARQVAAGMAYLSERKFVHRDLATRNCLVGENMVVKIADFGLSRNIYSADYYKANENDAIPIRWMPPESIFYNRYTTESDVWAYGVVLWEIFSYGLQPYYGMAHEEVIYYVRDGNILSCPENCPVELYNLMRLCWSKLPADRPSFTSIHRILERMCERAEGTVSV

[4] = biological target: Platelet-derived growth factor receptor beta (Homo sapiens, UniProt P09619); assay: Selectivity interaction (KinomeScan (DiscoverX)) EUB0000045b PDGFRB
[5] = biological target: Insulin-like growth factor 1 receptor (Homo sapiens, UniProt P08069); assay: Selectivity interaction (KinomeScan (DiscoverX)) EUB0000655a IGF1R; details: at 10 µM
[6] = biological target: Calcium/calmodulin-dependent protein kinase type II subunit gamma (Homo sapiens) (UniProt Q13555); assay: Selectivity interaction (KinomeScan (DiscoverX)) EUB0000607a CAMK2G; details: at 10 µM
[7] = biological target: T3, Megakaryocyte-associated tyrosine-protein kinase (Homo sapiens) (UniProt P42679); assay: Selectivity interaction (Kinase panel (Z-LYTE Assay)) EUB0001632a MATK; details: at 10 µM
T3 sequence (whole entry): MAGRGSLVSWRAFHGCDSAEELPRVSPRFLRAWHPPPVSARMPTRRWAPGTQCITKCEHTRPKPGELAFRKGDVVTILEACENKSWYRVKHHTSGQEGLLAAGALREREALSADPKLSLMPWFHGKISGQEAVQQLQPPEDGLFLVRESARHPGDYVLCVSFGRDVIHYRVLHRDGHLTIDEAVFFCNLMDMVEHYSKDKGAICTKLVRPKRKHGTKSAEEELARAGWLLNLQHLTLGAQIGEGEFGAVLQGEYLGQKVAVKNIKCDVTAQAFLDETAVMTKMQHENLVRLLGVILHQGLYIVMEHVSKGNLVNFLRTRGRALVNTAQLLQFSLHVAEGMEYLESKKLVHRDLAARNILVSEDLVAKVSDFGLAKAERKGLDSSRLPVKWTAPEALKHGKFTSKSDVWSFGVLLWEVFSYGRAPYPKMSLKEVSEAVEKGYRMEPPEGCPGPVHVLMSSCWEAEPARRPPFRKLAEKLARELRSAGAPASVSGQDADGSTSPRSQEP

Chain of Platelet-derived growth factor receptor beta (P09619 whole entry): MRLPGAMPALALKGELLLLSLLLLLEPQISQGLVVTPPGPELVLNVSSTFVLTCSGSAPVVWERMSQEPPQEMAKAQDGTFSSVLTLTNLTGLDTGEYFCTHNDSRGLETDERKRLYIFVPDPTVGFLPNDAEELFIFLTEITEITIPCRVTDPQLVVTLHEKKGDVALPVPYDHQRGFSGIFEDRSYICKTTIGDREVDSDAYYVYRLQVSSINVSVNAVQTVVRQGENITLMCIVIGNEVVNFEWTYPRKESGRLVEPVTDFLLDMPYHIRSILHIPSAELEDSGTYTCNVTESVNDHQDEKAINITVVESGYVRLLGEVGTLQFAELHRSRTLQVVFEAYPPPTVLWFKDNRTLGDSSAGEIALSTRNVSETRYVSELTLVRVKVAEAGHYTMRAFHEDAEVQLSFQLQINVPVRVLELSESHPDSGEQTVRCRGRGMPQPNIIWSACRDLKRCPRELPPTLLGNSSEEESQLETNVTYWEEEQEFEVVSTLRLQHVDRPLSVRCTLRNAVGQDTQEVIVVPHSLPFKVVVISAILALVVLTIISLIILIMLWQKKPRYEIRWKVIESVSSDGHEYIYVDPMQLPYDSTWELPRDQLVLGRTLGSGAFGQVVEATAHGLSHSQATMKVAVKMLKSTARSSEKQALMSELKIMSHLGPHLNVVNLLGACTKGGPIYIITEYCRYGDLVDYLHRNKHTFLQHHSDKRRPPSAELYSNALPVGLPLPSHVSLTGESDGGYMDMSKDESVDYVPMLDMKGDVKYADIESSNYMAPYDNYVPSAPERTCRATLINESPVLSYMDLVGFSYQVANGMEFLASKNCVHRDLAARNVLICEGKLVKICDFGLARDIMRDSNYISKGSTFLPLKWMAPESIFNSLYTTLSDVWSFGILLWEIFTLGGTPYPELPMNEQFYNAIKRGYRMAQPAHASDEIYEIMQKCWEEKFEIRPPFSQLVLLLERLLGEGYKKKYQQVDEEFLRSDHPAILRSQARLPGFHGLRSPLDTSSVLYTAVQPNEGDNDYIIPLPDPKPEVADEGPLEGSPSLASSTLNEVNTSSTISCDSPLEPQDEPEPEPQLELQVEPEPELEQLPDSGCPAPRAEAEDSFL
Chain of Calcium/calmodulin-dependent protein kinase type II subunit gamma (Homo sapiens) (Q13555 whole entry): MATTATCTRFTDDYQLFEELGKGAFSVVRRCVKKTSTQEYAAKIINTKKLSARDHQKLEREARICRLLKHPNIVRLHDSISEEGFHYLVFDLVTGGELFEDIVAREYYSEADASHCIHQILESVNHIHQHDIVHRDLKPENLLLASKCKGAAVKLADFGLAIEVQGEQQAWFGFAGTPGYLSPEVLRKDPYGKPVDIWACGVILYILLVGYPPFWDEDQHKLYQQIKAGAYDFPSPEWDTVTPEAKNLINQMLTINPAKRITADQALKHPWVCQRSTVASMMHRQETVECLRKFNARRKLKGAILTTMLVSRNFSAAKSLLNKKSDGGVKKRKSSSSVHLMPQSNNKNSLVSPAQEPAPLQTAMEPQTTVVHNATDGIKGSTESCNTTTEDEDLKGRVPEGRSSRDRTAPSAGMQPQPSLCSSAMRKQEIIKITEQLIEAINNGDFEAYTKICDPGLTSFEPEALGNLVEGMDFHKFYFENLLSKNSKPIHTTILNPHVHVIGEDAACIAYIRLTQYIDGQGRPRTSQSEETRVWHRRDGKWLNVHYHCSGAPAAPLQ
Chain of Insulin-like growth factor 1 receptor (P08069 31-736 limits assumed): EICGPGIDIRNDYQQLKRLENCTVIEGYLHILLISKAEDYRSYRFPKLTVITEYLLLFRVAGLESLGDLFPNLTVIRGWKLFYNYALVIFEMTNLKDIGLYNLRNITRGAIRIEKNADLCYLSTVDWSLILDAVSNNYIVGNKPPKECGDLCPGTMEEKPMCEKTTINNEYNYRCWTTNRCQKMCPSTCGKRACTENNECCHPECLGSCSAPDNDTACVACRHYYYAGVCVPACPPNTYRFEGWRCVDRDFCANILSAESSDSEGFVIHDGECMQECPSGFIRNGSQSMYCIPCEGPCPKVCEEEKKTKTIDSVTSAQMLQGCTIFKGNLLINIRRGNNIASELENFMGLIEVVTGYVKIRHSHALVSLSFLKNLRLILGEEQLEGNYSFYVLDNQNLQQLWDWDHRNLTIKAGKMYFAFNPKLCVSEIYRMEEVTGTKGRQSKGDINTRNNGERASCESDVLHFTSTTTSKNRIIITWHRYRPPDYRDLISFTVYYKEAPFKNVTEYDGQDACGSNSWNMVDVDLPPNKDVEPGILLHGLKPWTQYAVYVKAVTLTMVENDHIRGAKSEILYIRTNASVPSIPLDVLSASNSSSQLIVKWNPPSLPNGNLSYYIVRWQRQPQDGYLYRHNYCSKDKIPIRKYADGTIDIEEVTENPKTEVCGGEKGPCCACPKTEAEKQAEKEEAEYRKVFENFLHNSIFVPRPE
Chain of Insulin-like growth factor 1 receptor (P08069 741-1367 limits assumed): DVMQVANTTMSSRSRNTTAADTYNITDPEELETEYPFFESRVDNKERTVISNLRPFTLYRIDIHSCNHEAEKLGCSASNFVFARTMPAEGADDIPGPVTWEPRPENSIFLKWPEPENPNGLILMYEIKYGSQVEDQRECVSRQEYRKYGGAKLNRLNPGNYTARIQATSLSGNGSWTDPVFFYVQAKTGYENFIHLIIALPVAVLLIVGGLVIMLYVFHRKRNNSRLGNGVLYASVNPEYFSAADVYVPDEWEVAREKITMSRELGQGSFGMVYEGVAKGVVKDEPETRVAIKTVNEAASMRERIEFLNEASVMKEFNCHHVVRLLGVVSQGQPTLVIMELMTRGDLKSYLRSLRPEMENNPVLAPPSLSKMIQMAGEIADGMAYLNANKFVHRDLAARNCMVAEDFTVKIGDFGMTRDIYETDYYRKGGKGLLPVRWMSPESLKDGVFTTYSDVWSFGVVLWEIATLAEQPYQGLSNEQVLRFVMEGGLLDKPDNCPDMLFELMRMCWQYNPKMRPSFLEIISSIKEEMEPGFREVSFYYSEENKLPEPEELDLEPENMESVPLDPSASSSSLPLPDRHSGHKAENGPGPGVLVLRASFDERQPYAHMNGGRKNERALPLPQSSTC
Chain of Misshapen-like kinase 1 (Q8N4C8 whole entry, looked up): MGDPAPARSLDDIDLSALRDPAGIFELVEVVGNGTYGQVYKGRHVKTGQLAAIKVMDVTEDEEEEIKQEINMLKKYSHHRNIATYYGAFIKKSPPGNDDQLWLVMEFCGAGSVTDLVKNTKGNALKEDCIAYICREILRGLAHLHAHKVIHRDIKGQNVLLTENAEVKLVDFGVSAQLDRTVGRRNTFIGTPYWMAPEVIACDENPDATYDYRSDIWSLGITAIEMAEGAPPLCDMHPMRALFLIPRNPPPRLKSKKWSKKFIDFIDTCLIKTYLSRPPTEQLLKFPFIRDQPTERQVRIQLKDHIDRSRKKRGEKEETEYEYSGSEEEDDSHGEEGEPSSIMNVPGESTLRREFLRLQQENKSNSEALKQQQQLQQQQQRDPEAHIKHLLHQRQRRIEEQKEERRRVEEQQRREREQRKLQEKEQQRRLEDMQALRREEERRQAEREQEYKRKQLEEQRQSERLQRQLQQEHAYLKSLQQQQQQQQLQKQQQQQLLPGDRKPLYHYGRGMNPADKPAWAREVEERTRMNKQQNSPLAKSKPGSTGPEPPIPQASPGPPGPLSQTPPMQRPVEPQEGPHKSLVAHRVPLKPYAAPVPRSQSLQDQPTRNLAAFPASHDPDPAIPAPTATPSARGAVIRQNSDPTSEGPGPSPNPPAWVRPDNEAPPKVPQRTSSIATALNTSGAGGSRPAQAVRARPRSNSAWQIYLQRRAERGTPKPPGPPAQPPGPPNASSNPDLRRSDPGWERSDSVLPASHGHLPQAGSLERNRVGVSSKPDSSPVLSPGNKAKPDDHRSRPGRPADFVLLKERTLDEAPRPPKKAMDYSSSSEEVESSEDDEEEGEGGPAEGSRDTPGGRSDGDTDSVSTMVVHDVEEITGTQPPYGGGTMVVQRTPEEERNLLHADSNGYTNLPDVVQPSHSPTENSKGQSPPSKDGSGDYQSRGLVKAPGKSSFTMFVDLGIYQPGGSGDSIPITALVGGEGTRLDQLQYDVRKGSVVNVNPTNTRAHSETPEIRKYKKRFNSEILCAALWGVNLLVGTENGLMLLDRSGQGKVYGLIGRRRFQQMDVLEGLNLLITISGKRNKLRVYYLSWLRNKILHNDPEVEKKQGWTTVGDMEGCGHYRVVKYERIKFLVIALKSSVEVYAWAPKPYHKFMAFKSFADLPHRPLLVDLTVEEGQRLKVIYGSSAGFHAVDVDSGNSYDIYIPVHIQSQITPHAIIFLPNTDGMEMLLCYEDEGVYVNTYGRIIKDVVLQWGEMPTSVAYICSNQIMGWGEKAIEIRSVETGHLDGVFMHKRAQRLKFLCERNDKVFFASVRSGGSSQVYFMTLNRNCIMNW

## O=C(NOC[C@H](O)CO)c1ccc(F)c(F)c1Nc1ccc(I)cc1F
Misshapen-like kinase 1
  % of control: 94%

## Nc1cnc(N2CCc3cc(S(=O)(=O)Nc4c(F)cc(Cl)cc4F)cc(N4CCCC4=O)c32)nc1 [TP-020n]
[1]
  % of control: 99%

## CC[C@@H]1[C@H](F)C(=O)N[C@@H]1COc1nccc2cc(C(N)=O)c(OC)cc12 [ZIMLOVISERTIB]
[2]
  % of inhibition: 0.995%

## C=CC(=O)Nc1cc(-n2c(=O)ccc3cnc4ccc(-c5ccc(NS(C)(=O)=O)cc5)cc4c32)ccc1C
[3]; at 1 µM
  % of control: 100%
[3]; at 10 µM
  % of control: 82%
[4]; at 1 µM
  % of control: 76%
[4]; at 10 µM
  % of control: 63%

## CN(C)CCOc1ccc(-c2nc(-c3ccncc3)c(-c3ccc4c(c3)CC/C4=N\O)[nH]2)cc1
[5]
  % of control: 100%

## CNC(=O)Nc1ccc(-c2nc(N3CC4CCC(C3)O4)c3cnn(C4CCC5(CC4)OCCO5)c3n2)cc1
[6]
  % of control: 100%

## Cn1cc(-n2cnc3c(NCc4nc5cc(Cl)c(Cl)cc5[nH]4)nc(N4CCOCC4)nc32)cn1
[7]
  % of control: 7.05%
